In assay [1] the target is T1, aSMase (Rattus norvegicus, UniProt F7ETC0).
T1 construct: Crude preparations containing aSMase or nSMase were made from stripped rat brains; from tissue; host or cells: rat brain
T1 sequence (F7ETC0 1-626): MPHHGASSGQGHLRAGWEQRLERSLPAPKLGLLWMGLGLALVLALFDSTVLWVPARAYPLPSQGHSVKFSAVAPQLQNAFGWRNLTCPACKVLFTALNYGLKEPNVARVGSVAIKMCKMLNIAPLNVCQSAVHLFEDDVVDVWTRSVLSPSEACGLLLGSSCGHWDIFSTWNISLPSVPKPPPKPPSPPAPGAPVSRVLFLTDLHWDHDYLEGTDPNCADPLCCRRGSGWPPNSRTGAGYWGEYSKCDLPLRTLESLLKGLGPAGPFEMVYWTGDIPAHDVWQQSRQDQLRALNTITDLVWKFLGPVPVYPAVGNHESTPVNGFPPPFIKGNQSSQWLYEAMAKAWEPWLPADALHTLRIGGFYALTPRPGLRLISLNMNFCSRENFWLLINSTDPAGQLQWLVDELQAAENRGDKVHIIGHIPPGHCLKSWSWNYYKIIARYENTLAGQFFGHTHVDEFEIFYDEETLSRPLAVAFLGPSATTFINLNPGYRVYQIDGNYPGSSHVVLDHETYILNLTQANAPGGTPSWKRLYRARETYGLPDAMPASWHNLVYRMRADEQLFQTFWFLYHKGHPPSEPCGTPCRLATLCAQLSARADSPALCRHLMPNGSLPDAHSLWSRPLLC
Briefly: fluorescent aSMase assay with HMU-PC substrate. The class given is biochemical. Particulars: for IC50: read-out: IC50 inhibition of aSMase. How it is done:
Enzyme assays: Crude preparations containing aSMase or nSMase were made from stripped rat brains, as described before. […] The fluorescent aSMase assay was performed in a 384-well-plate using the HMU-PC (6-Hexadecanoylamino-4-methylumbelliferyl-phosphorylcholine) substrate. Reaction mixtures consisted of 13.3 μL HMU-PC, 13.3 μL reaction-buffer (100 mM NaOAc, pH 5.2, 0.2% (w/v) Na—TC, […], 0.2% (v/v) Triton X-100) and 13.3 μL enzyme preparation. Inhibitors were added in various concentrations and the reactions were incubated for 3 hours at 37° C. in a plate reader (FLUOstar OPTIMA, BMG labtech). The fluorescence of HMU (6-Hexadecanoylamino-4-methylumbelliferone) was measured (excitation 380 nm, emission 460 nm) in real time. Assays using the radio-labelled sphingomyelin gave the same results.

The test system of assay [2] is α-galactosidase A (α-Gal A). Particulars: sub-inhibitory intracellular concentrations; cited from earlier work.
For assay [3], the system named is isolated, ventilated and perfused rat lungs. Particulars: 10 μM; cited from earlier work.
Where [4] appears, read: read-out: Inhibition [%] at 20 μM (aSMase, initial phosphonate collection).
Setting [5] is: read-out: Inhibition [%] at 20 μM (aSMase, initial bisphosphonate collection).

Like-named read-outs stand apart in the source and are kept apart here.

Turning to `CCCCP(=O)(O)O` [Compound 2], the inhibition at 20 µM in assay [1] (setting [4]) was determined as 2%.

`NC(CP(=O)(O)O)P(=O)(O)O` (centres unmarked) [Compound 3]: the inhibition at 20 µM in assay [1] (setting [4]) amounted to 47%.

In the case of `O=P(O)(O)CN(CP(=O)(O)O)CP(=O)(O)O` [Compound 4], in assay [1] (setting [4]), the inhibition at 20 µM stood at 0%.

For `O=P(O)(O)CN(CCN(CP(=O)(O)O)CP(=O)(O)O)CCN(CP(=O)(O)O)CP(=O)(O)O` [Compound 5], in assay [1] (setting [4]), the inhibition at 20 µM was -5%. In the case of `NCCCCCC(O)(P(=O)(O)O)P(=O)(O)O` [Compound 6], the inhibition at 20 µM in assay [1] (setting [5]) came to 54%. With `CCCCCC(N)(P(=O)(O)O)P(=O)(O)O` [Compound 7a], the IC50 in assay [1] worked out at 4.66 ± 1.07 µM. The inhibition at 20 µM in assay [1] (setting [5]) worked out at 92%.

Consider `CCCCCCCC(N)(P(=O)(O)O)P(=O)(O)O` [Compound 7b], for which, in assay [1], the “aSMase inhibitory potency relative to PtdIns-3,5P2” value is reported as “about one order of magnitude more potent than PtdIns-3,5P2” and the IC50 turned out to be 0.04 ± 0.01 µM. The inhibition at 20 µM in assay [1] (setting [5]) was determined as 93%. With `CC(NCC(=O)O)(P(=O)(O)O)P(=O)(O)O` [Compound 8], the inhibition at 20 µM in assay [1] (setting [5]) is 62%. In the case of `CCCCNC(P(=O)(O)O)P(=O)(O)O` [Compound 9], the inhibition at 20 µM in assay [1] (setting [5]) was determined as 76%.

For `O=P(O)(O)C(Nc1ccccc1)P(=O)(O)O` [Compound 10], in assay [1] (setting [5]), the inhibition at 20 µM was determined as 8%.

As for `C=CCN(CC=C)C(P(=O)(O)O)P(=O)(O)O` [Compound 11], the inhibition at 20 µM in assay [1] (setting [5]) is 32%. With `CC(C)CN(CC(C)C)C(P(=O)(O)O)P(=O)(O)O` [Compound 12], the inhibition at 20 µM in assay [1] (setting [5]) turned out to be 2%. Turning to `O=P(O)(O)C(N(CO)CO)P(=O)(O)O` [Compound 13], in assay [1] (setting [5]), the inhibition at 20 µM was found to be 36%. As for `CN(C)C(P(=O)(O)O)P(=O)(O)O` [Compound 14], in assay [1] (setting [5]), the inhibition at 20 µM stood at 24%. For `CCCCCCCCCC(OP(=O)(OC)OC)P(=O)(OC)OC` (centres unmarked) [Compound 16, Decyl-1-dimethylphosphate-1-dimethylphosphohonate], in assay [1], the “activity towards aSMase” value was “totally inactive” and the concentration for half-maximal inhibition (IC50) is over 100 µM. Take `CCCCCCCCCC(OP(=O)(O)O)P(=O)(O)O` (centres unmarked) [Compound 17, Decyl-1,1-phosphate phosphonate]: in assay [1], the “activity towards aSMase” value was “as active as its bisphosphonate analogue 15b” and the IC50 is 0.35 ± 0.06 µM. For `CCCCCC(N(C)C)(P(=O)(O)O)P(=O)(O)O` [Compound 19a], the concentration for half-maximal inhibition (IC50) in assay [1] worked out at 9.5 ± 4 µM. Same read-out and setting: with `CCCCCCCCCC(N(C)C)(P(=O)(O)O)P(=O)(O)O` [Compound 19b, 1-dimethylaminodecyl-1,1-bisphosphonicacid] the figure was 0.18 ± 0.03 µM; with `O=P(O)(O)C(O)(Cn1ccnc1)P(=O)(O)O` [Compound 20, zoledronic acid, reference compound], 5.08 ± 0.74 µM.

Turning to `OC[C@H]1NC[C@H](O)[C@@H](O)[C@H]1O` [DGJ, 1-deoxy-galactonojirimycin], in assay [2], the “stimulation of α-Gal A in cells” value is recorded as “seven- to eight-fold”.

Regarding `CN(C)CCCN1c2ccccc2CCc2ccccc21` [imipramine], the “attenuation of PAF-induced oedema formation” value in assay [3] is reported as “attenuated but not completely prevented oedema formation”.

In general, inhibition refers to the drop in the measured response relative to a control, in per cent. The term IC50 denotes the concentration that gives 50% inhibition.

Values taken from patent US20120178720A1, “Bisphosphonates as Inhibitors of Acid Sphingomyelinase” (priority 2009, published 2012).
